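Each compound was tested at five concentrations against cells in 96-well plates for 48 hours. Abbreviation: GI50, concentration required for 50% inhibition of growth. Definition used: TGI = concentration required for complete inhibition of growth.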
How the values were obtained:
Assay in all cases: NCI-60 cell line screen, 48 h
K-562 leukemia = test system: K-562 leukemia
SK-OV-3 ovarian = test system: SK-OV-3 ovarian
SF-295 CNS = test system: SF-295 CNS
A549 NSCLC = test system: A549 NSCLC
SNB-19 CNS = test system: SNB-19 CNS
NCI-H23 lung = test system: NCI-H23 lung
LOX IMVI melanoma = test system: LOX IMVI melanoma
MDA-MB-468 breast = test system: MDA-MB-468 breast
HOP-92 NSCLC = test system: HOP-92 NSCLC
PC-3 prostate = test system: PC-3 prostate
IGROV1 ovarian = test system: IGROV1 ovarian
DU-145 prostate = test system: DU-145 prostate
KM12 colon = test system: KM12 colon
HS 578T breast = test system: HS 578T breast
NCI-H460 lung = test system: NCI-H460 lung
CAKI-1 renal = test system: CAKI-1 renal
RXF 393 renal = test system: RXF 393 renal
HT29 colon = test system: HT29 colon
HL-60(TB) leukemia = test system: HL-60(TB) leukemia
A498 renal = test system: A498 renal
EKVX NSCLC = test system: EKVX NSCLC
TK-10 renal = test system: TK-10 renal
UACC-257 melanoma = test system: UACC-257 melanoma
SF-539 CNS = test system: SF-539 CNS
COLO 205 colon = test system: COLO 205 colon
T-47D breast = test system: T-47D breast
M14 melanoma = test system: M14 melanoma
CCRF-CEM leukemia = test system: CCRF-CEM leukemia
MOLT-4 leukemia = test system: MOLT-4 leukemia
UACC-62 melanoma = test system: UACC-62 melanoma
SR leukemia = test system: SR leukemia
MDA-MB-435 = test system: MDA-MB-435
OVCAR-4 ovarian = test system: OVCAR-4 ovarian
SW-620 colon = test system: SW-620 colon
U251 CNS = test system: U251 CNS
NCI-H522 lung = test system: NCI-H522 lung
HCT-116 colon = test system: HCT-116 colon
OVCAR-5 ovarian = test system: OVCAR-5 ovarian
SK-MEL-2 melanoma = test system: SK-MEL-2 melanoma
SK-MEL-28 melanoma = test system: SK-MEL-28 melanoma
786-0 renal = test system: 786-0 renal
UO-31 renal = test system: UO-31 renal
SN12C renal = test system: SN12C renal
SF-268 CNS = test system: SF-268 CNS
MDA-MB-231 breast = test system: MDA-MB-231 breast
OVCAR-8 ovarian = test system: OVCAR-8 ovarian
SK-MEL-5 melanoma = test system: SK-MEL-5 melanoma
HCT-15 colon = test system: HCT-15 colon
HCC-2998 colon = test system: HCC-2998 colon
BT-549 breast = test system: BT-549 breast
OVCAR-3 ovarian = test system: OVCAR-3 ovarian
NCI/ADR-RES ovarian = test system: NCI/ADR-RES ovarian
RPMI-8226 leukemia = test system: RPMI-8226 leukemia
NCI-H226 lung = test system: NCI-H226 lung
MALME-3M melanoma = test system: MALME-3M melanoma
HOP-62 NSCLC = test system: HOP-62 NSCLC
ACHN renal = test system: ACHN renal
SNB-75 CNS = test system: SNB-75 CNS
MCF7 breast = test system: MCF7 breast

Cc1ccc(/C=C/C(=O)c2ccc(S(=O)(=O)NCCNc3nc(Nc4ccc(F)cc4)nc(N(C)C)n3)cc2)cc1
GI50 (K-562 leukemia): 3.89 µM | TGI (K-562 leukemia): 25.3 µM | GI50 (SK-OV-3 ovarian): 17 µM | TGI (SK-OV-3 ovarian): 45.9 µM | GI50 (SF-295 CNS): 11.5 µM | TGI (SF-295 CNS): 23.8 µM | GI50 (A549 NSCLC): 10.5 µM | TGI (A549 NSCLC): 28.6 µM | GI50 (SNB-19 CNS): 11 µM | TGI (SNB-19 CNS): 23.6 µM | GI50 (NCI-H23 lung): 11.3 µM | TGI (NCI-H23 lung): 23.8 µM | GI50 (LOX IMVI melanoma): 4.12 µM | TGI (LOX IMVI melanoma): 15.3 µM | GI50 (MDA-MB-468 breast): 4.66 µM | TGI (MDA-MB-468 breast): 17 µM | GI50 (HOP-92 NSCLC): 7.63 µM | TGI (HOP-92 NSCLC): 22.2 µM | GI50 (PC-3 prostate): 3.54 µM | TGI (PC-3 prostate): 18.2 µM | GI50 (IGROV1 ovarian): 15.1 µM | TGI (IGROV1 ovarian): 31 µM | GI50 (DU-145 prostate): 14 µM | TGI (DU-145 prostate): 32.4 µM | GI50 (KM12 colon): 5.41 µM | TGI (KM12 colon): 24.5 µM | GI50 (HS 578T breast): 10.7 µM | TGI (HS 578T breast): 47.4 µM | GI50 (NCI-H460 lung): 4.22 µM | TGI (NCI-H460 lung): 15.8 µM | GI50 (CAKI-1 renal): 6.98 µM | TGI (CAKI-1 renal): 22.6 µM | GI50 (RXF 393 renal): 4.98 µM | TGI (RXF 393 renal): 18.2 µM | GI50 (HT29 colon): 2.38 µM | TGI (HT29 colon): 5.25 µM | GI50 (HL-60(TB) leukemia): 5.58 µM | TGI (HL-60(TB) leukemia): 32.1 µM | GI50 (A498 renal): 12.6 µM | TGI (A498 renal): 25.5 µM | GI50 (EKVX NSCLC): 4.96 µM | TGI (EKVX NSCLC): 16.9 µM | GI50 (TK-10 renal): 15.2 µM | TGI (TK-10 renal): 30.7 µM | GI50 (UACC-257 melanoma): 17.4 µM | TGI (UACC-257 melanoma): 33.1 µM | GI50 (SF-539 CNS): 13 µM | TGI (SF-539 CNS): 25.9 µM | GI50 (COLO 205 colon): 6.51 µM | TGI (COLO 205 colon): 20.9 µM | GI50 (T-47D breast): 3.86 µM | TGI (T-47D breast): 17.8 µM | GI50 (M14 melanoma): 5.91 µM | TGI (M14 melanoma): 19.7 µM | GI50 (CCRF-CEM leukemia): 5.28 µM | TGI (CCRF-CEM leukemia): > 100 µM | GI50 (MOLT-4 leukemia): 3.86 µM | TGI (MOLT-4 leukemia): 48.6 µM | GI50 (UACC-62 melanoma): 8.4 µM | TGI (UACC-62 melanoma): 21.1 µM | GI50 (SR leukemia): 2.76 µM | TGI (SR leukemia): 11.2 µM | GI50 (MDA-MB-435): 6.03 µM | TGI (MDA-MB-435): 21.6 µM | GI50 (OVCAR-4 ovarian): 7.79 µM | TGI (OVCAR-4 ovarian): 33.8 µM | GI50 (SW-620 colon): 7.53 µM | TGI (SW-620 colon): 20.9 µM | GI50 (U251 CNS): 11.6 µM | TGI (U251 CNS): 26 µM | GI50 (NCI-H522 lung): 5.24 µM | TGI (NCI-H522 lung): 18.1 µM | GI50 (HCT-116 colon): 1.75 µM | TGI (HCT-116 colon): 3.28 µM | GI50 (OVCAR-5 ovarian): 14.9 µM | TGI (OVCAR-5 ovarian): 28.2 µM | GI50 (SK-MEL-2 melanoma): 11.2 µM | TGI (SK-MEL-2 melanoma): 24.2 µM | GI50 (SK-MEL-28 melanoma): 11.3 µM | TGI (SK-MEL-28 melanoma): 23.7 µM | GI50 (786-0 renal): 10.5 µM | TGI (786-0 renal): 23.1 µM | GI50 (UO-31 renal): 6.77 µM | TGI (UO-31 renal): 19.8 µM | GI50 (SN12C renal): 11.2 µM | TGI (SN12C renal): 23.4 µM | GI50 (SF-268 CNS): 8.76 µM | TGI (SF-268 CNS): 29.2 µM | GI50 (MDA-MB-231 breast): 6.56 µM | TGI (MDA-MB-231 breast): 20 µM | GI50 (OVCAR-8 ovarian): 13 µM | TGI (OVCAR-8 ovarian): 27 µM | GI50 (SK-MEL-5 melanoma): 8.25 µM | TGI (SK-MEL-5 melanoma): 20.7 µM | GI50 (HCT-15 colon): 3.92 µM | TGI (HCT-15 colon): 10.9 µM | GI50 (HCC-2998 colon): 4.5 µM | TGI (HCC-2998 colon): 15.8 µM | GI50 (BT-549 breast): 15.7 µM | TGI (BT-549 breast): 30.1 µM | GI50 (OVCAR-3 ovarian): 11.3 µM | TGI (OVCAR-3 ovarian): 24.8 µM | GI50 (NCI/ADR-RES ovarian): 8.39 µM | TGI (NCI/ADR-RES ovarian): 21.1 µM | GI50 (RPMI-8226 leukemia): 2.73 µM | TGI (RPMI-8226 leukemia): 8.28 µM | GI50 (NCI-H226 lung): 10.4 µM | TGI (NCI-H226 lung): 25.8 µM | GI50 (MALME-3M melanoma): 16.4 µM | TGI (MALME-3M melanoma): 31.6 µM | GI50 (HOP-62 NSCLC): 15.3 µM | TGI (HOP-62 NSCLC): 31.4 µM | GI50 (ACHN renal): 6.31 µM | TGI (ACHN renal): 18.9 µM | GI50 (SNB-75 CNS): 7.59 µM | TGI (SNB-75 CNS): 45 µM | GI50 (MCF7 breast): 2.01 µM | TGI (MCF7 breast): 5.8 µM

From PubChem BioAssay (NCI)
